Measured values: US11655235B2, “Pyrrolidine and piperidine compounds” (YUHAN CORPORATION, priority 2019, dated 2023)

Columns and labels:
Type in all cases: biochemical
[1] = target: DPP4 (Homo sapiens, UniProt P27487); assay: DPP4 inhibition, fluorogenic substrate H-Gly-Pro-AMC; parameters: purchased R&D Systems; details: recombinant human DPP4
[2] = target: T1, recombinant human DPP9 (Homo sapiens, UniProt Q86TI2); assay: DPP9 inhibition, fluorogenic substrate H-Gly-Pro-AMC; details: recombinant human DPP9
T1 construct: purchased R&D Systems
T1 sequence (Q86TI2 whole entry): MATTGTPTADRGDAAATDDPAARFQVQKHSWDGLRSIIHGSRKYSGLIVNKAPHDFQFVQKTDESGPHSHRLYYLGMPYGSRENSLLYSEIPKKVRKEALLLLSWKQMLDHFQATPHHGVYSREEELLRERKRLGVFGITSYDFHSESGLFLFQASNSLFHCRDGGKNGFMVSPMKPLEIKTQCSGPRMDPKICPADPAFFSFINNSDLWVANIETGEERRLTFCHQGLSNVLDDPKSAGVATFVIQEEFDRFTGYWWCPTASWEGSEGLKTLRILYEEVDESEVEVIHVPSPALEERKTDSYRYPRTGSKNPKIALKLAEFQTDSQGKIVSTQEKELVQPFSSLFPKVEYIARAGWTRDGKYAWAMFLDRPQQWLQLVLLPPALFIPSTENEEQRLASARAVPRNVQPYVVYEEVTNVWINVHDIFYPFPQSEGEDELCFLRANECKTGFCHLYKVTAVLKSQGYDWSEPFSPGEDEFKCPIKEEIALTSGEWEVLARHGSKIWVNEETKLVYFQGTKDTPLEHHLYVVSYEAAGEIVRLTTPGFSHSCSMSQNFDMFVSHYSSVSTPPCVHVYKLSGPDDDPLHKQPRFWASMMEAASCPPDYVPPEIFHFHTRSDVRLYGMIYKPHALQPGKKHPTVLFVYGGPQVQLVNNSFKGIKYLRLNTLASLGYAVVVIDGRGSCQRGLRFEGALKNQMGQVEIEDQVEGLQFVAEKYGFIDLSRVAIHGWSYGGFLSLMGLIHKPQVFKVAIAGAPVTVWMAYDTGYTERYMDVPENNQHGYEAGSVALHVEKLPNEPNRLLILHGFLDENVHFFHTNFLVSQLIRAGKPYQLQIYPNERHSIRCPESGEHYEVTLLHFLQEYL
Method in brief: (§1)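 Inhibitors are titrated in an 8-point series into the enzyme's assay buffer (DMSO no more than 0.5%). Substrate cleavage at 25 °C is followed by fluorescence, excitation 380 nm and emission 460 nm. IC50 values come from a four-variable logistic model.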

[3] = target: T2, recombinant human PREP (Homo sapiens, UniProt P48147); assay: PREP inhibition, fluorogenic substrate Z-Gly-Pro-AMC; details: Inhibitory Activity (IC50, nM) PREP, recombinant human PREP
T2 construct: purchased R&D System
T2 sequence (P48147 1-710): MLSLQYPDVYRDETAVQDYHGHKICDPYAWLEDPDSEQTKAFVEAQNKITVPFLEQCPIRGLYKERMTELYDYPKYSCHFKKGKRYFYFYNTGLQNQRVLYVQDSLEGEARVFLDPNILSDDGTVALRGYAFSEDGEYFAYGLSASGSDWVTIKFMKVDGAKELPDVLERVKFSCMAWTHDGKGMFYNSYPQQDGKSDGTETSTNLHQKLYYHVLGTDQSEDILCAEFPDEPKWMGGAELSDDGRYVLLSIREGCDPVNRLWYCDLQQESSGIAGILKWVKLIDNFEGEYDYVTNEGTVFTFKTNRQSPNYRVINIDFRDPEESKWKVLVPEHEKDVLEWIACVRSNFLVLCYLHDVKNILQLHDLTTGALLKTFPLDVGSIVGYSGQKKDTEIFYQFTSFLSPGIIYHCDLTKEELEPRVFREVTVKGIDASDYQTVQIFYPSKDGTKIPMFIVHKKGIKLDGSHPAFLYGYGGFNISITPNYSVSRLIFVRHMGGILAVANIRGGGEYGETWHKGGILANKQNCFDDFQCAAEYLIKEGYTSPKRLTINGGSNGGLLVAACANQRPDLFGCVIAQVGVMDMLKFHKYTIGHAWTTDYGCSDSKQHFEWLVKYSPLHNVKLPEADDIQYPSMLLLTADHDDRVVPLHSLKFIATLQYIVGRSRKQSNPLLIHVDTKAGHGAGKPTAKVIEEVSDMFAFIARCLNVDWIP
Method in brief: as §1

[4] = target: T3, Recombinant human FAP (Homo sapiens, UniProt Q12884); assay: FAP FRET assay, FGF21-sequence FRET peptide substrate; details: FRET peptide with human FGF21 sequence, 6 μM, 37° C.
T3 construct: purchased R&D systems
T3 sequence (Q12884 1-760): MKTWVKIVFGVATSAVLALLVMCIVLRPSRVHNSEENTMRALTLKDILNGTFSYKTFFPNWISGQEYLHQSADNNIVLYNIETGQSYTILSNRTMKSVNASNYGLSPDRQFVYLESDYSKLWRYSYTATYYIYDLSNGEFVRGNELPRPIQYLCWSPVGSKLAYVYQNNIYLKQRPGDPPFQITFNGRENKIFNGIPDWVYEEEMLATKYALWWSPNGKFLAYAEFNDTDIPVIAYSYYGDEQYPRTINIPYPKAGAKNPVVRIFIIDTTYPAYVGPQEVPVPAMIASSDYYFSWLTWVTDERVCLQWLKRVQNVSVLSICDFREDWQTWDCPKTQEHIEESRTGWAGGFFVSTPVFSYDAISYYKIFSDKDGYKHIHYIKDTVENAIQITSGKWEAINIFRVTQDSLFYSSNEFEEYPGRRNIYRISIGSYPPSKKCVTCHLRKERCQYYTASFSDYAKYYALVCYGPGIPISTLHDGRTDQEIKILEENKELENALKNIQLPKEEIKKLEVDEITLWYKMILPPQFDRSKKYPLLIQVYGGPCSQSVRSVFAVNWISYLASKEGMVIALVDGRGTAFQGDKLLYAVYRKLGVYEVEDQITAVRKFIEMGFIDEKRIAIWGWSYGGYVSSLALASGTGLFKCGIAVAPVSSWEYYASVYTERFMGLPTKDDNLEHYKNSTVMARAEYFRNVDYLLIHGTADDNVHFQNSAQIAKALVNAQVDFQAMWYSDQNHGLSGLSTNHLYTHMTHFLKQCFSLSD
Method in brief: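 FRET peptide bearing human FGF21 sequence (6 μM final) cleaved by 10 ng recombinant human FAP at 37° C in HEPES pH 7.2 buffer with NaCl, BSA and EDTA, DMSO up to 0.1%. Signal-rate decrease versus uninhibited control fitted to a four-variable logistic model for IC50.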

[5] = target: T4, recombinant human DPP7 (Homo sapiens, UniProt Q9UHL4); assay: DPP7 inhibition, fluorogenic substrate Lys-Pro-AMC; details: recombinant human DPP7
T4 construct: purchased R&D Systems
Method in brief: as §1

Sequence of DPP4 (P27487 whole entry): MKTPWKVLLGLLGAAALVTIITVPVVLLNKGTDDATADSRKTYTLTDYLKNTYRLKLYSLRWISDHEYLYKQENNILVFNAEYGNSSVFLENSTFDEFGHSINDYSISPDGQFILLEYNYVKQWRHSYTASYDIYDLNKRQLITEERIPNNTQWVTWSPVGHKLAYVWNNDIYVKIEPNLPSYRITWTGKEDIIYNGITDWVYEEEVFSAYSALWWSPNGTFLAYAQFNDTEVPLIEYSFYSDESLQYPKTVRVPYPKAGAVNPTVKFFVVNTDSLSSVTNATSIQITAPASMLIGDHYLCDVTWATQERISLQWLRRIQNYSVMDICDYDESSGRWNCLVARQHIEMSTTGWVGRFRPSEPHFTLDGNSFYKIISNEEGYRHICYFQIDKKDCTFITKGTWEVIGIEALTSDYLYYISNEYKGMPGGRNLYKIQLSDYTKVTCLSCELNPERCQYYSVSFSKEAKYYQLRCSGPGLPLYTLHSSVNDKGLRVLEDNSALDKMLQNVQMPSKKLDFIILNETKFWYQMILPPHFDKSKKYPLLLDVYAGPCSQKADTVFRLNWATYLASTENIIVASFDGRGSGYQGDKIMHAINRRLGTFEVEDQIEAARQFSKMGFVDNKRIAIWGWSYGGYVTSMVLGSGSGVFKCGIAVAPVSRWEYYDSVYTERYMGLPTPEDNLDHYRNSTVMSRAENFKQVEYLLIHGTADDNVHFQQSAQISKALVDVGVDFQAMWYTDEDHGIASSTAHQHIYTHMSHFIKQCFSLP

Row | Compound | IC50 [1] [µM] | IC50 [2] [µM] | IC50 [3] [nM] | IC50 [4] [µM] | IC50 [5] [µM]
1 | Cc1cnc2cccc(N[C@@H]3CCN(CC(=O)N4CCC[C@H]4C#N)C3)c2c1 [Example 208, (2S)-1-[2-[(3R)-3-[(3-methyl-5-quinolyl)amino]pyrrolidin-1-yl]acetyl]pyrrolidine-2-carbonitrile] | 6.51 | 19.2 | 12000 | 0.0017 | 1.37
2 | CN(C)C(=O)c1ccc(N[C@H]2CCN(CC(=O)N3C[C@@H](F)C[C@H]3C#N)C2)c2cccnc12 [Example 282, N,N-dimethyl-5-[[(3S)-1-[2-oxo-2-[(2S,4S)-2-cyano-4-fluoro-pyrrolidin-1-yl]ethyl]pyrrolidin-3-yl]amino]quinoline-8-carboxamide] | 3.47 | 4.85 | 5060 | 0.0058 | 0.241
3 | N#C[C@@H]1C[C@H](F)CN1C(=O)CN1CC[C@@H](Nc2cc(F)cc3ncccc23)C1 [Example 174, (2S,4S)-4-fluoro-1-[2-[(3R)-3-[(7-fluoro-5-quinolyl)amino]pyrrolidin-1-yl]acetyl]pyrrolidine-2-carbonitrile] | 3.02 | 1.99 | 2440 | 0.0026 | 0.846
4 | N#C[C@@H]1C[C@H](F)CN1C(=O)CN1CC[C@H](Nc2ccc(C(=O)Nc3ccncc3)c3ncccc23)C1 [Example 292, N-(4-pyridyl)-5-[[(3S)-1-[2-oxo-2-[(2S,4S)-2-cyano-4-fluoro-pyrrolidin-1-yl]ethyl]pyrrolidin-3-yl]amino]quinoline-8-carboxamide] | 5.18 | 0.371 | 1470 | 0.0013 | 0.163
5 | N#C[C@@H]1C[C@H](F)CN1C(=O)CN1CC[C@@H](Nc2cc(C(F)(F)F)c3ncccc3c2)C1 [Example 216, (2S,4S)-4-fluoro-1-[2-[(3R)-3-[[8-(trifluoromethyl)-6-quinolyl]amino]pyrrolidin-1-yl]acetyl]pyrrolidine-2-carbonitrile] | 1.35 | 0.822 | 2560 | 0.0017 | 0.399
6 | N#C[C@@H]1CCCN1C(=O)CN1CC[C@H](Nc2ccc(C(=O)Nc3ccncc3)c3ncccc23)C1 [Example 291, N-(4-pyridyl)-5-[[(3S)-1-[2-oxo-2-[(2S)-2-cyanopyrrolidin-1-yl]ethyl]pyrrolidin-3-yl]amino]quinoline-8-carboxamide] | 12.9 | 2.84 | 2110 | 0.0044 | 0.173
7 | CC(=O)Nc1ccc(N[C@H]2CCN(CC(=O)N3CCC[C@H]3C#N)C2)c2cccnc12 [Example 296, N-[5-[[(3S)-1-[2-oxo-2-[(2S)-2-cyanopyrrolidin-1-yl]ethyl]pyrrolidin-3-yl]amino]-8-quinolyl]acetamide] | 15.6 | 10.6 | 6440 | 0.0047 | 0.142
8 | Cc1ccc(N[C@@H]2CCN(CC(=O)N3C[C@@H](F)C[C@H]3C#N)C2)c2cccnc12 [Example 181, (2S,4S)-4-fluoro-1-[2-[(3R)-3-[(8-methyl-5-quinolyl)amino]pyrrolidin-1-yl]acetyl]pyrrolidine-2-carbonitrile] | 1.06 | 4.62 | 4670 | 0.0026 | 0.215
9 | CCOc1ccc(NC2CCN(CC(=O)N3C[C@@H](F)C[C@H]3C#N)CC2)c2cccnc12 [Example 371, (2S,4S)-1-[2-[4-[(8-ethoxy-5-quinolyl)amino]-1-piperidyl]acetyl]-4-fluoro-pyrrolidine-2-carbonitrile] | 4.57 | 5.2 | 4910 | 0.007 | 0.307
10 | N#C[C@@H]1C[C@H](F)CN1C(=O)CN1CC[C@@H](Nc2ccc(OC(F)(F)F)c3ncccc23)C1 [Example 186, (2S,4S)-4-fluoro-1-[2-[(3R)-3-[[8-(trifluoromethoxy)-5-quinolyl]amino]pyrrolidin-1-yl]acetyl]pyrrolidine-2-carbonitrile] | 2.22 | 4.41 | 3590 | 0.0027 | 2.02
